Literature values in patent US6823530B2, “Antimicrobial treatment for swimwear” (Kimberly-Clark Worldwide, Inc., priority 2000, dated 2004).

Columns and labels:
[1] = test system: gram negative and positive bacteria

With `CC1(C)C(=O)N(CO)C(=O)N1CO` [DMDM Hydantoin, DMDM (dimethyl dimethyl) Hydantoin] as the molecule, how does the “effectiveness against gram negative and positive bacteria” value [1] read?
The value was “highly effective”.

And the thermal stability (held above room temperature (50° Celsius) for a long period of time)?
Its thermal stability is “does not break down”.

What about the pH stability (wide pH range) of the same molecule?
The pH stability was “stable over a wide pH range”.
